Laboratory results published in US7119229B2 (priority 2001, dated 2006).
Where two headings read alike, the source gives them in different places.

Tests used:
Format in all cases: cell-based
[1] = tested on: BALB/c mouse spleen cells, B cells activated with lipopolysaccharide (LPS); assay: Immunosuppressive effect test using BALB/c mouse spleen cells, LPS (B cells); conditions: 20 μg/ml lipopolysaccharide, 72 hours, MTS, FIGS. 2 and 3
Description: (§1) This test was carried out to determine the immunosuppressive effect of an immunosuppressive candidate material by checking anti-proliferation of T cells and B cells. To identify the proliferation inhibitory extent, responding cells (BALB/c mouse spleen cells) were treated with an immunosuppressive candidate material, lipopolysaccharide (LPS) as a B cell activator and concanvalin A (ConA) as a T cell activator. It is known that the responding cells treated with LPS induce proliferation of B cells and those treated with ConA induce proliferation of T cells.
(§2) Responding cells (BALB/c mouse spleen cells) were seeded into each well of 96-well plates at a concentration of 2×10^5 cells/well. […] After culturing for 72 hours at a CO2 incubator, a 20 μl MTS solution was added to each well, followed by further culturing for 2 to 4 hours and measuring OD at 490 nm using ELISA.

[2] = tested on: BALB/c mouse spleen cells, T cells activated with concanvalin A (ConA); assay: Immunosuppressive effect test using BALB/c mouse spleen cells, ConA (T cells); conditions: 2 μg/ml of ConA, 72 hours, MTS, FIGS. 2 and 3
Description: as §1, §2

[3] = tested on: MES-SA (human uterine sarcoma); assay: SRB cytotoxicity assay, MES-SA; conditions: read-out: ED50 MES-SA
Description: (§3) Human tumor cells, including MCF-7 (human breast adenomatous tumor), MCF-7/DOX (adriamycin resistant cell strain), MRS-SA (human uterine sarcoma), MES-SA/DX5 (adriamycin resistant cell strain), A 549 (human non-small cell lung), SKOV-3 (human ovarian), SKMEL-2 (human melanoma), XF-498 (human CNS), HCT-15 (human colon) were incubated at 37° C. in the presence of 5% CO2 using a DMEM culture medium. The respective cells were seeded into each well of 96-well plates at a concentration of 2×10^3˜5×10^3 cells/well. […] Each cell line of the resultant plates was fixed with trichloroacetic acid (TCA), stained with 0.4% SRB solution and rinsed with 1% acetic acid. Thereafter, the dye was dissolved in 10 mM Tris base to measure the optical density (OD) at 520 nm.

[4] = tested on: SKOV-3 (human ovarian); assay: SRB cytotoxicity assay, SK-OV-3; conditions: 72 hours, read-out: ED50 SK-OV-3
Description: as §3

[5] = tested on: MCF-7/DOX (adriamycin resistant cell strain); assay: SRB cytotoxicity assay, MCF-7/DOX; conditions: Homo sapiens, MCF7-DOX, read-out: ED50 MCF-7/DOX
Description: as §3

[6] = tested on: XF-498 (human CNS); assay: SRB cytotoxicity assay, XF498; conditions: 72 hours, read-out: ED50 XF498
Description: as §3

[7] = tested on: A 549 (human non-small cell lung); assay: SRB cytotoxicity assay, A549; conditions: read-out: ED50 A549
Description: as §3

[8] = tested on: BALB/c mouse spleen cell (responding) and DBA/2 mouse spleen cell (stimulating)
Description: MLR tests were carried out to determine the immunosuppressive effect of an immunosuppressive candidate material. When a responding cell (BALB/c mouse spleen cell) and a stimulating cell (DBA/2 mouse spleen cell) were cultured separately, the cells grew little. On the contrary, when the cells were simultaneously cultured, the cells were proliferated due to induction of an antigen-antibody reaction. The proliferated cells were treated with the immunosuppressive candidate material for measurement of the proliferation inhibitory extent.
After culturing for 72 hours at a CO2 incubator, a 20 μl MTS solution was added to each well, followed by further culturing for 2 to 4 hours and measuring OD at […] by using ELISA.

[9] = tested on: HCT-15 (human colon); assay: SRB cytotoxicity assay, HCT15; conditions: read-out: ED50 HCT15
Description: as §3

[10] = tested on: MES-SA/DX5 (adriamycin resistant cell strain); assay: SRB cytotoxicity assay, MES-SA/DX5; conditions: Homo sapiens, read-out: ED50 MES-SA/DX5
Description: as §3

[11] = tested on: MCF-7 (human breast adenomatous tumor); assay: SRB cytotoxicity assay, MCF7; conditions: read-out: ED50 MCF7
Description: as §3

[12] = tested on: SKMEL-2 (human melanoma); assay: SRB cytotoxicity assay, SK-MEL-2; conditions: read-out: ED50 SK-MEL-2
Description: as §3

Row | Structure (SMILES) | anti-proliferation of B cells [1] | anti-proliferation of T cells [2] | EC50 ([3]; 72 h) | EC50 [4] | EC50 ([5]; 72 h) | EC50 [6] | EC50 ([7]; A549, 72 h) | immunosuppressive effect [8] | EC50 ([9]; HCT-15, 72 h) | EC50 ([10]; MES-SA/Dx5, 72 h) | EC50 ([11]; MCF7, 72 h) | EC50 ([12]; SK-MEL-2, 72 h) | EC50 ([3]; SRB, 72 hours) | EC50 ([5]; SRB, 72 hours) | EC50 ([7]; A549, SRB, 72 hours) | EC50 ([9]; HCT-15, SRB, 72 hours) | EC50 ([10]; MES-SA/Dx5, SRB, 72 hours) | EC50 ([11]; MCF7, SRB, 72 hours) | EC50 ([12]; SK-MEL-2, SRB, 72 hours)
1 | COc1cc2c(c(OC)c1OC)-c1ccc(SC)c(=O)cc1[C@@H](NC(=O)c1cccc(CO[N+](=O)[O-])c1)CC2 [Compound 12] | remarkable anti-proliferous effect | remarkable anti-proliferous effect | 0.01 nM | 0.3 nM | 28 nM | 0.2 nM | 0.1 nM | good immunosuppressive effect | 0.1 nM | 115 nM | 0.02 nM | 0.1 nM |  |  |  |  |  |  | 
2 | CC(=O)O[C@H]1C(=O)[C@@]2(C)[C@H]([C@H](OC(=O)c3ccccc3)[C@]3(O)C[C@H](OC(=O)[C@H](O)[C@@H](NC(=O)c4ccccc4)c4ccccc4)C(C)=C1C3(C)C)[C@]1(OC(C)=O)CO[C@@H]1C[C@@H]2O [Taxol, reference compound] |  |  |  | 1.2 nM |  | 1.7 nM |  |  |  |  |  |  | 0.02 nM | 943 nM | 0.3 nM | 0.1 nM | 1150 nM | 0.04 nM | 0.1 nM
